From patent publication US4001414A, “1,3,4-Trimethyl-2-(3,4,5-trimethoxybenzyl)-1,2,5,6-tetrahydropyridine and analgesic composition and method using it” (priority 1974, dated 1977) come the findings set out here.

Data set [1] relates to acetic acid-induced writhing. Briefly: Analgesic activity, acetic acid-induced writhing technique. It is filed as in vivo, albino I.C.R. Swiss mice. Particulars: for No. of writhes (x ± M.S.E.): acetic acid 0.25 ml of 1% i.p. after 30 minutes, writhes counted in 20 minutes, p <0.001, control 112.2 ± 4.2, average value ± mean standard error; for analgesic activity (in words): as may be seen from Table B, mice. Here is the method: The analgesic activity was investigated in albino I.C.R. Swiss mice, using the acetic acid-induced writhing technique. Groups each of 10 mice were assembled.
The analgesics were injected intraperitoneally, and after 30 minutes 0.25 ml of a 1% solution of acetic acid was injected intraperitoneally. A control group received only acetic acid. The numbers of writhes made by each mouse was counted in the 20 minutes following administration of the acetic acid.
A general note: In writhing tests, fewer writhes than in controls are read as antinociception.

Data set [2] is described as follows: Acute toxicity (LD50), i.p., method of Litchfield and Wilcoxon. Particulars: mouse, in vivo, ip; I.C.R. Swiss mice, both sexes, 30 ± 2 g, intraperitoneal. Here is the method: Acute toxicity studies were conducted in I.C.R. Swiss mice weighing 30 ± 2 g, of both sexes. The products were administered intraperitoneally (i.p.). The acute toxicity calculations were made by the method of Litchfield and Wilcoxon.

Take `CCC(=O)O[C@](Cc1ccccc1)(c1ccccc1)[C@H](C)CN(C)C` [Dextropropoxyphene, reference compound]: the “No. of writhes (x ± M.S.E.)” value in data set [1] (25 mg/kg i.p.) worked out at 22.8 ± 4.74.

Take `COc1cc(CC2C(C)=C(C)CCN2C)cc(OC)c1OC` (stereo not drawn) [Product I, 1,3,4-trimethyl-2-(3,4,5-trimethoxybenzyl)-1,2,5,6-tetrahydropyridine]: in data set [1] (20 mg/kg i.p.), the “No. of writhes (x ± M.S.E.)” value amounted to 74.5 ± 4.84 and the “analgesic activity (in words)” value is reported as “have analgesic activity”.

By LD50 is commonly meant the dose at which mortality reaches 50%. In the case of `COc1cc(C[N+]2(C)CCC(C)=C(C)C2)cc(OC)c1OC.[Cl-]` (stereo not drawn) [Product II, 1,3,4-trimethyl-1-(3,4,5-trimethoxybenzyl)-1,2,5,6-tetrahydropyridinium chloride], the LD50 in data set [2] came out at 77 mg/kg. In addition, in data set [1] (20 mg/kg i.p.), the “No. of writhes (x ± M.S.E.)” value turned out to be 53.6 ± 4.7 and the “analgesic activity (in words)” value is “have analgesic activity”.
